Measurements published in PubChem BioAssay (NCI).
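Compound exposure: 48 hours, 5 concentrations, 96-well plates. GI50: concentration for 50% inhibition of growth. Definition used: TGI = concentration required for complete inhibition of growth.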

Tests used:
Assay in all cases: DTP human tumour cell line panel, 48 h
[1] = system: 786-0 renal
[2] = system: TK-10 renal
[3] = system: PC-3 prostate
[4] = system: SK-MEL-5 melanoma
[5] = system: RPMI-8226 leukemia
[6] = system: SK-MEL-28 melanoma
[7] = system: OVCAR-4 ovarian
[8] = system: UO-31 renal
[9] = system: HCC-2998 colon
[10] = system: NCI-H522 lung
[11] = system: HL-60(TB) leukemia
[12] = system: M14 melanoma
[13] = system: COLO 205 colon
[14] = system: T-47D breast
[15] = system: UACC-257 melanoma
[16] = system: OVCAR-3 ovarian
[17] = system: LOX IMVI melanoma
[18] = system: U251 CNS
[19] = system: MOLT-4 leukemia
[20] = system: RXF 393 renal
[21] = system: SR leukemia
[22] = system: CAKI-1 renal
[23] = system: NCI/ADR-RES ovarian
[24] = system: NCI-H460 lung
[25] = system: KM12 colon
[26] = system: MDA-MB-231 breast
[27] = system: BT-549 breast
[28] = system: SF-295 CNS
[29] = system: DU-145 prostate
[30] = system: SN12C renal
[31] = system: SNB-75 CNS
[32] = system: SK-OV-3 ovarian
[33] = system: HOP-92 NSCLC
[34] = system: SW-620 colon
[35] = system: SK-MEL-2 melanoma
[36] = system: IGROV1 ovarian
[37] = system: SF-268 CNS
[38] = system: SF-539 CNS
[39] = system: EKVX NSCLC
[40] = system: HCT-15 colon
[41] = system: MDA-MB-435
[42] = system: SNB-19 CNS
[43] = system: OVCAR-8 ovarian
[44] = system: A549 NSCLC
[45] = system: HS 578T breast
[46] = system: UACC-62 melanoma
[47] = system: K-562 leukemia
[48] = system: A498 renal
[49] = system: MCF7 breast
[50] = system: NCI-H226 lung
[51] = system: MALME-3M melanoma
[52] = system: HT29 colon
[53] = system: HOP-62 NSCLC
[54] = system: ACHN renal
[55] = system: NCI-H23 lung
[56] = system: HCT-116 colon
[57] = system: OVCAR-5 ovarian

`Oc1c(C(Nc2cccc3ccccc23)c2ccccc2)ccc2cccnc12` (centres undefined) showed a GI50 [1] of 3.37 µM, a TGI [1] of 76.3 µM and a GI50 [2] of 11 µM. It also gave a TGI [2] of 45.8 µM, a GI50 [3] of 5.16 µM and a TGI [3] of over 100 µM. For the same molecule, the GI50 [4] was 2.1 µM, the TGI [4] was 5.99 µM and the GI50 [5] was 2.36 µM. It also gave a TGI [5] of over 100 µM, a GI50 [6] of 4.14 µM and a TGI [6] of over 100 µM. It also gave a GI50 [7] of 2.3 µM, a TGI [7] of over 100 µM and a GI50 [8] of 1.62 µM. It also gave a TGI [8] of 23 µM, a GI50 [9] of 4.56 µM and a TGI [9] of over 100 µM. For the same molecule, the GI50 [10] was 2.74 µM, the TGI [10] was 7.82 µM and the GI50 [11] was 1.93 µM. The TGI [11] was 8.4 µM, the GI50 [12] was 2.01 µM and the TGI [12] was 8.48 µM. The GI50 [13] was 4.17 µM, the TGI [13] was 17.7 µM and the GI50 [14] was 4.75 µM. The TGI [14] was 58.3 µM, the GI50 [15] was 2.88 µM and the TGI [15] was 9.28 µM. It also gave a GI50 [16] of 3.79 µM, a TGI [16] of 19.1 µM and a GI50 [17] of 1.92 µM. The TGI [17] was 13.7 µM, the GI50 [18] was 2.42 µM and the TGI [18] was 16 µM. For the same molecule, the GI50 [19] was 2.41 µM, the TGI [19] was over 100 µM and the GI50 [20] was 3.12 µM. The TGI [20] was 19.1 µM, the GI50 [21] was 2.76 µM and the TGI [21] was 22.5 µM. The GI50 [22] was 2.15 µM, the TGI [22] was 6.54 µM and the GI50 [23] was 2.17 µM. The TGI [23] was 8.29 µM, the GI50 [24] was 2.07 µM and the TGI [24] was 18.5 µM. For the same molecule, the GI50 [25] was 5.03 µM, the TGI [25] was over 100 µM and the GI50 [26] was 12 µM. It also gave a TGI [26] of 70.8 µM, a GI50 [27] of 2.07 µM and a TGI [27] of 14.5 µM. It also gave a GI50 [28] of 2.96 µM, a TGI [28] of over 100 µM and a GI50 [29] of 7.22 µM. The TGI [29] was over 100 µM, the GI50 [30] was 4.1 µM and the TGI [30] was over 100 µM. For the same molecule, the GI50 [31] was 5.67 µM, the TGI [31] was over 100 µM and the GI50 [32] was 5.9 µM. The TGI [32] was over 100 µM, the GI50 [33] was 2.95 µM and the TGI [33] was 36.3 µM. It also gave a GI50 [34] of 3.73 µM, a TGI [34] of 24 µM and a GI50 [35] of 6.58 µM. For the same molecule, the TGI [35] was over 100 µM, the GI50 [36] was 3.79 µM and the TGI [36] was 11 µM. It also gave a GI50 [37] of 3.04 µM, a TGI [37] of 28.7 µM and a GI50 [38] of 4.56 µM. For the same molecule, the TGI [38] was 21.4 µM, the GI50 [39] was 2.93 µM and the TGI [39] was 41.1 µM. For the same molecule, the GI50 [40] was 3.78 µM, the TGI [40] was 62.1 µM and the GI50 [41] was 5 µM. For the same molecule, the TGI [41] was over 100 µM, the GI50 [42] was 5.64 µM and the TGI [42] was over 100 µM. It also gave a GI50 [43] of 3.22 µM, a TGI [43] of 39.3 µM and a GI50 [44] of 2.95 µM. The TGI [44] was over 100 µM, the GI50 [45] was 7.37 µM and the TGI [45] was over 100 µM. For the same molecule, the GI50 [46] was 2.82 µM, the TGI [46] was 39.6 µM and the GI50 [47] was 3.8 µM. The TGI [47] was over 100 µM, the GI50 [48] was 3.27 µM and the TGI [48] was 23.9 µM. The GI50 [49] was 3.2 µM, the TGI [49] was over 100 µM and the GI50 [50] was 2.17 µM. It also gave a TGI [50] of 8.06 µM, a GI50 [51] of 5.17 µM and a TGI [51] of 25.7 µM. The GI50 [52] was 5.57 µM, the TGI [52] was over 100 µM and the GI50 [53] was 4.9 µM. It also gave a TGI [53] of over 100 µM, a GI50 [54] of 3.55 µM and a TGI [54] of 28.6 µM. It also gave a GI50 [55] of 4.04 µM, a TGI [55] of 27.5 µM and a GI50 [56] of 2.86 µM. It also gave a TGI [56] of 17.9 µM, a GI50 [57] of 7.32 µM and a TGI [57] of over 100 µM.
